“Also recorded” adds a separate entry of the source.
Legend:
SW620 = test: Cell viability, CTG, SW620; format: cell-based; conditions: SW620 (Colon)
Procedure: To measure cell viability, cell titer glow (CTG, Promega CellTiter-Glo 2.0 Assay) and MTT assays (SigmaAldrich, Cell Proliferation Kit I) were performed. Briefly, cells were serum starved overnight prior to seeding in 96-well plates. Following 24 h incubation, cells were treated with increasing concentrations of JGJ compounds for 96 hr. At assay read-out, CellTiter-Glo reagent was added and luminescence was measured after 10-minutes incubation at room temperature. For the MTT assay, MTT labeling reagent was added and incubated for 4 h. Subsequently, medium was removed and 50 μL DMSO was added to solubilize the crystals, and absorbance was measured at 570 nm. Cell viability was calculated as (Sample-Background)/(Control-Background). Current standard of care drugs, Enzalutamide, Palbociclib and Cetuximab were used as comparative controls.

LIN28B protein = LIN28B protein (Homo sapiens, UniProt Q6ZN17); test: Western blot of LIN28B protein levels in AML cells; conditions: Kasumi-1 and THP-1; 1632 120-160 μM
Sequence of LIN28B protein (Q6ZN17 whole entry): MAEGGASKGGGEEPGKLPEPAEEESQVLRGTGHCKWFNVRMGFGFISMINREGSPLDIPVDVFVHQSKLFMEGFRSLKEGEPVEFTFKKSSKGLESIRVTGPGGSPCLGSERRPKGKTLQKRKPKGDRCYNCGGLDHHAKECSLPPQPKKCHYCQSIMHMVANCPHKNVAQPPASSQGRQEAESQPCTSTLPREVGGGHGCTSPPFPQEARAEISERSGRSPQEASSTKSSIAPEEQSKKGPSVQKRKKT
Procedure: Thus, we subcutaneously (subQ) implanted THP-1 (high LIN28B) cells or MOLM-13 (no LIN28B) into NSG mice and 12 d later (tumor size=40 mm^2) started administration of 1632 IP at 100 mg/kg every other day.

Kasumi-1 = test: Systemic Kasumi-1 AML xenograft; format: in vivo, mice; conditions: systemic Kasumi-1 xenograft; for Animal survival: IP 100 mg/kg every other day for 21 d; for Tumor burden (bioluminescence imaging): IP 100 mg/kg every other day, d+26
Procedure: Subsequently, the tumor suppressive effect of LN1632 in cancer in vivo was assessed. High LIN28B expressing THP-1 AML cells (2×10^6 cells) were implanted in NSGS mice (cell suspension in matrigel, 3:1) and at d+12 or d+8 (tumor size=50 mm^2) injection of LN1632 IP at 100 mg/kg daily was initiated. […] The effect of LN1632 in a systemic Kasumi-1 xenograft was also assessed. […] The effects of LN1632 to cytarabine chemotherapy (Ara-C) was also compared, as previously described (74). THP-1 AML cells were subcutaneously implanted (1.5×10^6 cells, high LIN28B) in NSGS mice. Daily IP injections with 100 mg/kg LN1632, 60 mg/kg cytarabine chemotherapy (Ara-C), or vehicle was started at +d3 post AML cell implantation and continued until the vehicle group reached maximal allowed tumor size (250 mm^2).

CD34+ AML pt. #13 cells = test: CFC assay, AML pt #13 CD34+ cells vs healthy CD34+ BM cells; format: cell-based, human; conditions: AML pt #13 vs healthy donor CD34+ cells; 80-120 μM
Caco2 = Caco2 permeability; format: in vitro ADME; conditions: Conc. 100 uM
[1] = test system: LIN28B-expressing Ewing Sarcoma (EwS); conditions: recent report (72); cited from earlier work
[2] = test system: let-7a/b and let-7 target genes; test: miRNA and let-7 target gene expression in primary AML patient cells; format: cell-based, human; conditions: primary AML cells from three relapsed patients; 80-120 μM, 72 h
Excerpt: To measure the complete degree to which LN1632 regulates gene expression, we carried out RNA sequencing (RNAseq) in LSC-like Kasumi-1 cells. […] Importantly, we confirmed this gene expression pattern in primary AML cells from three relapsed patients (validated for LIN28B overexpression compared to healthy WBM). […] This is important because NFκB1, regulated by let-7 through IL6 (23) is, together with other BCL-2 family members (BAX, BCL2L15 and BMF, FIG. 5A), a well characterized gene associated with unique properties of LSC survival and AML relapse (45, 59, 60). […] We next explored the effect of LN1632 on primary AML cells.

PRPF31 = target: T1, PRPF31 (Homo sapiens, UniProt Q8WWY3); test: MS-CETSA and IP-MS target engagement; format: binding; parameters: endogenous in cells; host or cells: Kasumi-1 cell lysate
T1 sequence (Q8WWY3 1-499): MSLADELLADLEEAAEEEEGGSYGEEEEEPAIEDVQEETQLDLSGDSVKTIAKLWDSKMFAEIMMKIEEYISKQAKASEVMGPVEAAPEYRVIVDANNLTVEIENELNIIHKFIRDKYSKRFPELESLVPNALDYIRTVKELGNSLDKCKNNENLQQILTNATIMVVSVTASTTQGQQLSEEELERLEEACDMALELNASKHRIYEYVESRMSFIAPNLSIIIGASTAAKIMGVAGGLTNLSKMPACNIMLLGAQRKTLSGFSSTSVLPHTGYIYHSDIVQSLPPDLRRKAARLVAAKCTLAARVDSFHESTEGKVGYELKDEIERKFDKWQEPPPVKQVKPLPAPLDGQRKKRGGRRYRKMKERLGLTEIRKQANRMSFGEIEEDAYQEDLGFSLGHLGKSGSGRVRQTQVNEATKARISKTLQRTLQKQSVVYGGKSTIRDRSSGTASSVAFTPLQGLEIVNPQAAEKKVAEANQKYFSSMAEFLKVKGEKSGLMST
Procedure: Mass spectrometry cellular thermal shift assay (MS-CETSA, FIG. 12A) as described in (75), and immunoprecipitation using biotinylated LN1632 (FIG. 12B) were performed. […] PRPF31 is recruited to introns where its highly conserved Nop-domain coordinates the U4 snRNA—15.5K protein interaction. Subsequently, PRPF31 stabilizes the U4/U6.U5 tri-snRNP by concomitantly interacting with PRPF6 and induces the transition of the spliceosomal complex to the activated state (78).

With `CC(=O)N(C)c1cccc(-c2ccc3nnc(C)n3n2)c1` [LN1632] the IC50 (SW620) was 191 µM, the LIN28B protein levels (LIN28B protein) was “inhibits LIN28B protein expression; also recorded: dose-dependently decreases LIN28B protein levels” and the Animal survival (Kasumi-1; 100 mg/kg) was “significantly prolonged animal survival; also recorded: prolongs survival”. For the same compound, the Animal survival (Kasumi-1; listed as 1632, 100 mg/kg) was “prolongs survival; also recorded: significantly prolonged animal survival”, the “Tumor burden (bioluminescence imaging)” value (Kasumi-1; 100 mg/kg) was “decreased tumor burden; also recorded: reduces tumor burden” and the “Tumor burden (bioluminescence imaging)” value (Kasumi-1; listed as 1632, 100 mg/kg) was “reduces tumor burden; also recorded: decreased tumor burden”. The “Colony formation (CFC)” value (CD34+ AML pt. #13 cells) was “affects colony formation of CD34^+ AML pt. #13 cells significantly more than healthy CD34^+BM cells”, the “Caco2 Mean A-B % Recovery” value (Caco2) was 89.4% and the Caco2 efflux ratio (Caco2) was 1.08. The “Caco2 permeability Papp A-B” value (Caco2) was “A-B: 20.9 10^−6 cm/s”, the “Caco2 permeability Papp B-A” value (Caco2) was “B-A: 22.7 10^−6 cm/s” and the “Suppression of Ewing Sarcoma” value [1] was “selectively suppresses LIN28B-expressing Ewing Sarcoma (EwS) but not LIN28B depleted EwS”. The “Mature let-7a/b and let-7 target gene expression” value [2] was “dose-dependent, significant upregulation of mature let-7a/b and downregulation of multiple let-7 target genes”, the “Interaction partners by MS-CETSA and immunoprecipitation” value (PRPF31) was “interacts with additional RNA-binding proteins, in particular pre-mRNA processing factor 31” and the “Tm shift (MS-CETSA)” value (PRPF31; Kasumi-1 cell lysate) was “induces Tm shift of endogenous PRPF31”. For the same compound, the “IP-MS capture with biotinylated LN1632, competitive elution” value (PRPF31; n=3) was “captures PRPF31”.

Source: patent US20230059009A1, “INHIBITORS OF LIN28 AND METHODS OF USE THEREOF” (The Regents of the University of California, priority 2019, published 2023)
